For the experiment, the system named is NL-RLuc virus. As to the kind of experiment: Inhibition of HIV replication (NL-RLuc luciferase reporter virus in MT-2 cells). In kind it is cell-based. The note with it: Human immunodeficiency virus 1, MT2, 120 h. In outline: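 MT-2 cells were infected with NL4-3-derived virus carrying Renilla luciferase in place of part of nef, in RPMI/10% FBS, with serial compound dilutions. Luciferase read after 5 days of multicycle replication. EC50 from the median effect equation, at least 2 experiments.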
Background: In a reporter assay the amount or activity of a reporter protein is the signal.

Among the data in patent publication US10351546B2, “Pyridin-3-yl acetic acid derivatives as inhibitors of human immunodeficiency virus replication” (priority 2015, dated 2019) are EC50 values, retold here.

Where two headings read alike, the source gives them in different places.

Turning to `Cc1cc(F)ccc1CN1CCc2cc(-c3c(COCC4COC4)nc(C)c([C@H](OC(C)(C)C)C(=O)O)c3N3CCC(C)(C)CC3)ccc2C1` [Example 154, (S)-2-(tert-Butoxy)-2-(4-(4,4-dimethylpiperidin-1-yl)-5-(2-(4-fluoro-2-methylbenzyl)-1,2,3,4-tetrahydroisoquinolin-6-yl)-2-methyl-6-((oxetan-3-ylmethoxy)methyl)pyridin-3-yl)acetic acid], the EC50 (read-out: Activity) was below 0.1 µM.
Take `Cc1cc(F)ccc1CN1CCc2cc(-c3c(COC4CCOCC4)nc(C)c([C@H](OC(C)(C)C)C(=O)O)c3N3CCC(C)(C)CC3)ccc2C1` [Example 155, (S)-2-(tert-Butoxy)-2-(4-(4,4-dimethylpiperidin-1-yl)-5-(2-(4-fluoro-2-methylbenzyl)-1,2,3,4-tetrahydroisoquinolin-6-yl)-2-methyl-6-(((tetrahydro-2H-pyran-4-yl)oxy)methyl)pyridin-3-yl)acetic acid]: the EC50 was below 0.1 µM (read-out: Activity) and 0.001 µM (read-out: EC50 μM).
In the case of `CCOCc1nc(C)c([C@H](OC(C)(C)C)C(=O)O)c(N2CCC(C)(C)CC2)c1-c1ccc2c(c1)CCN(Cc1ccc(F)cc1C)C2` [Example 156, (S)-2-(tert-Butoxy)-2-(4-(4,4-dimethylpiperidin-1-yl)-6-(ethoxymethyl)-5-(2-(4-fluoro-2-methylbenzyl)-1,2,3,4-tetrahydroisoquinolin-6-yl)-2-methylpyridin-3-yl)acetic acid], where the note is “read-out: Activity”, the EC50 is below 0.1 µM.
Take `COCc1nc(C)c([C@H](OC(C)(C)C)C(=O)O)c(N2CCC(C)(C)CC2)c1-c1ccc2c(c1)CCN(Cc1ccc(F)cc1C)C2` [Example 157, (S)-2-(tert-Butoxy)-2-(4-(4,4-dimethylpiperidin-1-yl)-5-(2-(4-fluoro-2-methylbenzyl)-1,2,3,4-tetrahydroisoquinolin-6-yl)-6-(methoxymethyl)-2-methylpyridin-3-yl)acetic acid]: the EC50 (read-out: Activity) is below 0.1 µM.
The same measure, in the same setting: the value for `Cc1cc(F)ccc1CN1CCc2cc(-c3c(COC(C)C)nc(C)c([C@H](OC(C)(C)C)C(=O)O)c3N3CCC(C)(C)CC3)ccc2C1` [Example 158, (S)-2-(tert-Butoxy)-2-(4-(4,4-dimethylpiperidin-1-yl)-5-(2-(4-fluoro-2-methylbenzyl)-1,2,3,4-tetrahydroisoquinolin-6-yl)-6-(isopropoxymethyl)-2-methylpyridin-3-yl)acetic acid] was below 0.1 µM; that for `Cc1cc(F)ccc1CN1CCc2cc(-c3c(COCC4CCOCC4)nc(C)c([C@H](OC(C)(C)C)C(=O)O)c3N3CCC(C)(C)CC3)ccc2C1` [Example 159, (S)-2-(tert-Butoxy)-2-(4-(4,4-dimethylpiperidin-1-yl)-5-(2-(4-fluoro-2-methylbenzyl)-1,2,3,4-tetrahydroisoquinolin-6-yl)-2-methyl-6-(((tetrahydro-2H-pyran-4-yl)methoxy)methyl)pyridin-3-yl)acetic acid] was below 0.1 µM.
On the same count and under the same terms, the result for `CCOCCOCc1nc(C)c([C@H](OC(C)(C)C)C(=O)O)c(N2CCC(C)(C)CC2)c1-c1ccc2c(c1)CCN(Cc1ccc(F)cc1C)C2` [Example 160, (S)-2-(tert-Butoxy)-2-(4-(4,4-dimethylpiperidin-1-yl)-6-((2-ethoxyethoxy)methyl)-5-(2-(4-fluoro-2-methylbenzyl)-1,2,3,4-tetrahydroisoquinolin-6-yl)-2-methylpyridin-3-yl)acetic acid] reads below 0.1 µM.
The same measure, in the same setting: the value for `C#Cc1nc(C)c([C@H](OC(C)(C)C)C(=O)O)c(N2CCC(C)(C)CC2)c1-c1ccc(OCCc2ccc(F)cc2)cc1` [Example 161, (S)-2-(tert-Butoxy)-2-(4-(4,4-dimethylpiperidin-1-yl)-6-ethynyl-5-(4-(4-fluorophenethoxy)phenyl)-2-methylpyridin-3-yl)acetic acid] was below 0.1 µM.
Consider `Cc1nc(C#N)c(-c2ccc(OCCc3ccc(F)cc3)cc2)c(N2CCC(C)(C)CC2)c1[C@H](OC(C)(C)C)C(=O)O` [Example 162, (S)-2-(tert-Butoxy)-2-(6-cyano-4-(4,4-dimethylpiperidin-1-yl)-5-(4-(4-fluorophenethoxy)phenyl)-2-methylpyridin-3-yl)acetic acid], for which the EC50 by setting is: (read-out: Activity) below 0.1 µM; (read-out: EC50 μM) 0.008 µM.
For the compound `CC#Cc1nc(C)c([C@H](OC(C)(C)C)C(=O)O)c(N2CCC(C)(C)CC2)c1-c1ccc(OCCc2ccc(F)cc2)cc1` [Example 163, (S)-2-(tert-butoxy)-2-(4-(4,4-dimethylpiperidin-1-yl)-5-(4-(4-fluorophenethoxy)phenyl)-2-methyl-6-(prop-1-yn-1-yl)pyridin-3-yl)acetic acid], for the setting “read-out: Activity”, the EC50 was below 0.1 µM.
Still for that read-out and setting: the value for `Cc1cccc(Cl)c1CN1CCc2cc(-c3c(N)nc(C)c([C@H](OC(C)(C)C)C(=O)O)c3N3CCC(C)(C)CC3)ccc2C1` [Example 164, (S)-2-(6-Amino-5-(2-(2-chloro-6-methylbenzyl)-1,2,3,4-tetrahydroisoquinolin-6-yl)-4-(4,4-dimethylpiperidin-1-yl)-2-methylpyridin-3-yl)-2-(tert-butoxy)acetic acid] was below 0.1 µM; that for `Cc1cccc(Cl)c1CN1CCc2cc(-c3c(CO)nc(C)c([C@H](OC(C)(C)C)C(=O)O)c3N3CCC(C)(C)CC3)ccc2C1` [Example 165, (S)-2-(tert-butoxy)-2-(5-(2-(2-chloro-6-methylbenzyl)-1,2,3,4-tetrahydroisoquinolin-6-yl)-4-(4,4-dimethylpiperidin-1-yl)-6-(hydroxymethyl)-2-methylpyridin-3-yl)acetic acid] was below 0.1 µM; that for `Cc1cccc(Cl)c1CN1CCc2cc(-c3c(C#N)nc(C)c([C@H](OC(C)(C)C)C(=O)O)c3N3CCC(C)(C)CC3)ccc2C1` [Example 166, (S)-2-(tert-butoxy)-2-(5-(2-(2-chloro-6-methylbenzyl)-1,2,3,4-tetrahydroisoquinolin-6-yl)-6-cyano-4-(4,4-dimethylpiperidin-1-yl)-2-methylpyridin-3-yl)acetic acid] was below 0.1 µM.
Same read-out and setting: the value for `Cc1nc(N)c(-c2ccc3c(c2)CCN(c2ncnc4c2oc2ccccc24)C3)c(N2CCC(C)(C)CC2)c1[C@H](OC(C)(C)C)C(=O)O` [Example 167, (S)-2-(6-amino-5-(2-(benzofuro[3,2-d]pyrimidin-4-yl)-1,2,3,4-tetrahydroisoquinolin-6-yl)-4-(4,4-dimethylpiperidin-1-yl)-2-methylpyridin-3-yl)-2-(tert-butoxy)acetic acid] was below 0.1 µM.
Take `Cc1nc(CO)c(-c2ccc3c(c2)CCN(c2ncnc4c2oc2ccccc24)C3)c(N2CCC(C)(C)CC2)c1[C@H](OC(C)(C)C)C(=O)O` [Example 168, (S)-2-(5-(2-(Benzofuro[3,2-d]pyrimidin-4-yl)-1,2,3,4-tetrahydroisoquinolin-6-yl)-4-(4,4-dimethylpiperidin-1-yl)-6-(hydroxymethyl)-2-methylpyridin-3-yl)-2-(tert-butoxy)acetic acid]: the EC50 is, setting by setting: (read-out: Activity) below 0.1 µM; (read-out: EC50 μM) 0.001 µM.
Consider `Cc1nc(-c2cn(C)nn2)c(-c2ccc(OCCc3ccc(F)cc3)cc2)c(N2CCC(C)(C)CC2)c1[C@H](OC(C)(C)C)C(=O)O` [Example 169, (S)-2-(tert-butoxy)-2-(4-(4,4-dimethylpiperidin-1-yl)-5-(4-(4-fluorophenethoxy)phenyl)-2-methyl-6-(1-methyl-1H-1,2,3-triazol-4-yl)pyridin-3-yl)acetic acid], for which the EC50 (read-out: Activity) is below 0.1 µM.
On the same count and under the same terms, the value for `Cc1nc(Cc2ccc(F)cc2)c(-c2ccc(OCCc3ccc(F)cc3)cc2)c(N2CCC(C)(C)CC2)c1[C@H](OC(C)(C)C)C(=O)O` [Example 170, (S)-2-(tert-Butoxy)-2-(4-(4,4-dimethylpiperidin-1-yl)-6-(4-fluorobenzyl)-5-(4-(4-fluorophenethoxy)phenyl)-2-methylpyridin-3-yl)acetic acid] was below 0.1 µM; that for `Cc1nc(CC2=CCCCC2)c(-c2ccc(OCCc3ccc(F)cc3)cc2)c(N2CCC(C)(C)CC2)c1[C@H](OC(C)(C)C)C(=O)O` [Example 171, (S)-2-(tert-Butoxy)-2-(6-(cyclohex-1-en-1-ylmethyl)-4-(4,4-dimethylpiperidin-1-yl)-5-(4-(4-fluorophenethoxy)phenyl)-2-methylpyridin-3-yl)acetic acid] was below 0.1 µM.
The same measure, in the same setting: the value for `Cc1nc(CC2CCCCC2)c(-c2ccc(OCCc3ccc(F)cc3)cc2)c(N2CCC(C)(C)CC2)c1[C@H](OC(C)(C)C)C(=O)O` [Example 172, (S)-2-(tert-Butoxy)-2-(6-(cyclohexylmethyl)-4-(4,4-dimethylpiperidin-1-yl)-5-(4-(4-fluorophenethoxy)phenyl)-2-methylpyridin-3-yl)acetic acid] was below 0.1 µM.
As for `Cc1nc(CC2CCC(C)(C)CC2)c(-c2ccc(OCCc3ccc(F)cc3)cc2)c(N2CCC(C)(C)CC2)c1[C@H](OC(C)(C)C)C(=O)O` [Example 173, (S)-2-(tert-Butoxy)-2-(6-((4,4-dimethylcyclohexyl)methyl)-4-(4,4-dimethylpiperidin-1-yl)-5-(4-(4-fluorophenethoxy)phenyl)-2-methylpyridin-3-yl)acetic acid], the EC50 (read-out: Activity) was below 0.1 µM and the EC50 (read-out: EC50 μM) was 0.035 µM.
`Cc1nc(CNC23CC(C2)C3)c(-c2ccc(OCCc3ccc(F)cc3)cc2)c(N2CCC(C)(C)CC2)c1[C@H](OC(C)(C)C)C(=O)O` [Example 174, (S)-2-(6-((Bicyclo[1.1.1]pentan-1-ylamino)methyl)-4-(4,4-dimethylpiperidin-1-yl)-5-(4-(4-fluorophenethoxy)phenyl)-2-methylpyridin-3-yl)-2-(tert-butoxy)acetic acid]: the EC50 (read-out: Activity) is below 0.1 µM.
On the same count and under the same terms, the result for `Cc1cccc(Cl)c1CN1CCc2cc(-c3c(CN4CCC4)nc(C)c([C@H](OC(C)(C)C)C(=O)O)c3N3CCC(C)(C)CC3)ccc2C1` [Example 175, (S)-2-(6-(Azetidin-1-ylmethyl)-5-(2-(2-chloro-6-methylbenzyl)-1,2,3,4-tetrahydroisoquinolin-6-yl)-4-(4,4-dimethylpiperidin-1-yl)-2-methylpyridin-3-yl)-2-(tert-butoxy)acetic acid] reads below 0.1 µM.
